Conditions: 101.33 kPa, Liquid, Concentric cylinders viscometry

CCOC(=O)CCCCC(=O)OCC [diethyl hexanedioate]
Conditions | viscosity [mPa·s]
283.15 K | 4.57
288.15 K | 3.99
293.15 K | 3.51
298.15 K | 3.12
303.15 K | 2.79
308.15 K | 2.51
313.15 K | 2.28
318.15 K | 2.07
323.15 K | 1.9
328.15 K | 1.75
333.15 K | 1.61
338.15 K | 1.49
343.15 K | 1.39
348.15 K | 1.29
353.15 K | 1.21
358.15 K | 1.13
363.15 K | 1.06
368.15 K | 1
373.15 K | 0.94

Reference: the NIST ThermoML archive (doi:10.1021/je100237h)
